46 compounds from patent US10034886B2, “GLP-1 receptor modulators” (Celgene International II SÀRL, priority 2014, dated 2018) can be followed below.

Where two headings read alike, the source gives them in different places. Bounds are passed on as bounds.

The experiment addresses T1, GLP-1R (Homo sapiens, UniProt P43220).
T1 construct: host or cells: GLP-1R CRE-bla CHO-K1 cells
Briefly: EC20 GLP-1(9-36) PAM cAMP assay: dose response of compound in the presence of fixed concentration of GLP-1(9-36). It counts as cell-based. The conditions noted are these: GLP-1R CRE-bla CHO-K1 cells, read-out: EC20 GLP-1(9-36) PAM EC50. The method in brief:
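Positive allosteric modulation read as cAMP accumulation: compound titrations (12 points) combined with an EC20 level of GLP-1(9-36) on CHO-K1 GLP-1R CRE-bla cells, IBMX present, 30 min, 37 °C, pH 7.4 buffer. Luminescence converted to cAMP via standards; non-linear fit gave EC50 and Emax.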
(In general: Cyclic AMP is a second messenger, typically raised through Gs and lowered through Gi signalling.)

[1] abbreviates: dose response of compound in presence of fixed concentration of GLP-1(9-36).
Setting [2] is: compound dose response with fixed concentration of GLP-1(9-36).

T1 sequence (P43220 24-463): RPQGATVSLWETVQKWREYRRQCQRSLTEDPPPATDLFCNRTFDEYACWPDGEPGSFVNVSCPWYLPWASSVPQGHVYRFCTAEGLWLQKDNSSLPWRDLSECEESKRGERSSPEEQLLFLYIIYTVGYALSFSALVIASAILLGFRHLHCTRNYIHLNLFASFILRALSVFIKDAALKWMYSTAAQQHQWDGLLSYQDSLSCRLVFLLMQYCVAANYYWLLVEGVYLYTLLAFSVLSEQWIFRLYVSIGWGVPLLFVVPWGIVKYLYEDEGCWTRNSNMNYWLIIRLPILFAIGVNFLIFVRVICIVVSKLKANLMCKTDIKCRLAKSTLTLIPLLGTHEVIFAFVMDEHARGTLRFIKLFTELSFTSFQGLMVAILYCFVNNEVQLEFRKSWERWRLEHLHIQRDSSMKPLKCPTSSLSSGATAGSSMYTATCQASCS
T1 sequence (P01275 100-127 partner limits assumed): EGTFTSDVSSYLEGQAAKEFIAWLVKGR

`CCCCCCCOc1ccc(-c2cnc(-c3ccc(C[C@H](NC(=O)c4ccc(C(C)(C)C)cc4)C(=O)N[C@@H](Cc4cnn(C)c4)C(=O)O)cc3)nc2)cc1` [Compound 576]: the EC50 (as a rule, the concentration at which the effect is half-maximal) under setting [1] is 0.8 to 2.5 µM.

`Cc1ccc(-c2ccc(-c3cnc(-c4ccc(C[C@H](NC(=O)c5ccc(C(C)(C)C)s5)C(=O)N[C@H](C)C(=O)O)cc4)nc3)s2)cc1` [Compound 1302]: under setting [2], the EC50 lay in the range of 5 to 10 µM.

On to `CCCCCCCOc1ccc(-c2cnc(-c3ccc(C[C@H](NC(=O)c4ccc(C(C)(C)C)s4)C(=O)N4CC(C(=O)O)C4)cc3)nc2)cc1` [Compound 635, (S)-1-(2-(5-(tert-butyl)thiophene-2-carboxamido)-3-(4-(5-(4-(heptyloxy)phenyl)pyrimidin-2-yl)phenyl)propanoyl)azetidine-3-carboxylic acid], for which the EC50 under setting [1] is less than 0.8 µM.

In the case of `CCCCCCCOc1ccc(-c2cnc(-c3ccc(C[C@H](NC(=O)c4ccc(C(C)(C)C)cc4)C(=O)N[C@@H](CC(=O)O)C(=O)NCCOC)cc3)nc2)cc1` [Compound 506], the EC50 under setting [1] was 0.8 to 2.5 µM.

As for `CCC[C@H]1CC[C@H](C2CCN(c3cnc(-c4ccc(C[C@H](NC(=O)c5ccc(C(C)(C)C)cc5)C(=O)N5CC(C(=O)O)C5)cc4)nc3)CC2)CC1` [Compound 1414], the EC50 under setting [2] is less than 0.8 µM.

Consider `CCCCCCCOc1ccc(-c2cnc(-c3ccc(C[C@H](NC(=O)c4ccc(C(C)(C)C)s4)C(=O)N[C@@H](Cc4cn(C)cn4)C(=O)O)cc3)nc2)cc1` [Compound 593], for which the EC50 under setting [1] was less than 0.8 µM.

`CCCCCCCOc1ccc(-c2cnc(-c3ccc(C[C@H](NC(=O)c4ccc(C(C)(C)C)cc4)C(=O)N[C@@H](CC(=O)NCC(N)=O)C(=O)O)cc3)nc2)cc1` [Compound 482]: under setting [1], the EC50 was less than 0.8 µM.

`CCCCCCCOc1ccc(-c2cnc(-c3ccc(C[C@H](NC(=O)c4cnc(C(C)(C)C)nc4)C(=O)N[C@H](C)C(=O)O)cc3)nc2)cc1` [Compound 832]: under setting [1], the EC50 was in the range of 2.5 to 5 µM.

Regarding `CCCCCCCOc1ccc(-c2nc(-c3ccc(C[C@H](NC(=O)c4ccc(C(C)(C)C)cc4)C(=O)N[C@H](C)C(=O)O)cc3)no2)cc1` [Compound 801], the half-maximal effective concentration (EC50) under setting [1] lay in the range of 5 to 10 µM.

`CCCCc1ccc(-c2ccc(-c3cnc(-c4ccc(C[C@H](NC(=O)c5ccc(C(C)(C)C)s5)C(=O)N5CC(C(=O)O)C5)cc4)nc3)cc2)cc1` [Compound 1394]: under setting [2], the EC50 was less than 0.8 µM.

For the compound `CCCCCCCOc1ccc(-c2cnc(-c3ccc(C[C@H](NC(=O)c4ccc(C(C)(C)C)s4)C(=O)NCC4(C)CNC4)cc3)nc2)cc1` [Compound 986], under setting [1], the EC50 lay within 0.8 to 2.5 µM.

For the compound `CCCCCCCOc1ccc(-c2cnc(-c3ccc(C[C@H](NC(=O)Cc4ccc(OCCCC)cc4)C(=O)N4CCC[C@H]4C(=O)O)cc3)nc2)cc1` [Compound 1070], the EC50 under setting [1] lay within 0.8 to 2.5 µM.

As for `CCOc1ccc(-c2ccc(-c3cnc(-c4ccc(C[C@H](NC(=O)c5ccc(C(C)(C)C)s5)C(=O)N[C@H](C)C(=O)O)cc4)nc3)cc2)cc1` [Compound 1287], the EC50 under setting [2] was 0.8 to 2.5 µM.

Take `CCCCCCCOc1ccc(-c2cnc(-c3ccc(C[C@H](NC(=O)c4ccc(C(C)(C)C)s4)C(=O)NC(COC)C(=O)O)cc3)nc2)cc1` (stereo partly shown) [Compound 595]: the EC50 under setting [1] is less than 0.8 µM.

For `CCOc1cc(OC(F)(F)F)cc(-c2cnc(-c3ccc(C[C@H](NC(=O)c4ccc(C(C)(C)C)s4)C(=O)N[C@H](C)C(=O)O)cc3)nc2)c1F` [Compound 1045], the EC50 under setting [1] lay within 2.5 to 5 µM.

Regarding `CCCCCCCOc1ccc(-c2cnc(-c3ccc(C[C@H](NC(=O)c4ccc(C(C)(C)C)s4)C(=O)N[C@@H](CC(=O)O)C(=O)NCCOC)cc3)nc2)cc1` [Compound 532], the EC50 under setting [1] is less than 0.8 µM.

In the case of `CC(C)[C@H]1CC[C@H](c2ccc(-c3cnc(-c4ccc(C[C@H](NC(=O)c5ccc(C(C)(C)C)s5)C(=O)N5CC(C(=O)O)C5)cc4)nc3)cc2)CC1` [Compound 1178], the EC50 under setting [1] was less than 0.8 µM.

Consider `CC[C@H]1CC[C@H](c2ccc(-c3cnc(-c4ccc(C[C@H](NC(=O)c5ccc(C(F)(F)F)nc5)C(=O)O)cc4)nc3)cc2)CC1` [Compound 1388], for which the EC50 under setting [2] fell in the range of 0.8 to 2.5 µM.

`CCC[C@H]1CC[C@H](C2CCN(c3cnc(-c4ccc(CC(NC(=O)c5ccc(C(C)(C)C)s5)C(=O)NS(=O)(=O)C(F)(F)F)cc4)nc3)CC2)CC1` (stereo partly shown) [Compound 1549]: the EC50 under setting [2] was less than 0.8 µM.

As for `CCCCCCCOc1ccc(-c2cnc(-c3ccc(C[C@H](NC(=O)c4ccc(C(C)(C)C)s4)C(=O)N4CCC[C@H]4C(=O)O)cc3)nc2)nc1` [Compound 1064], under setting [1], the EC50 was in the range of 0.8 to 2.5 µM.

For `CCCCCCCOc1ccc(-c2cnc(-c3ccc(C[C@H](NC(=O)c4ccc(C(C)(C)C)cc4)C(=O)NCC(Cc4cccnc4)C(=O)O)cc3)nc2)cc1` (stereo partly shown) [Compound 557], under setting [1], the EC50 is less than 0.8 µM.

In the case of `CCCCCCCOc1ccc(-c2cnc(-c3ccc(C[C@H](NC(=O)c4ccc(C(C)(C)CC)cc4)C(=O)N4CC[C@H](C(=O)O)C4)cc3)nc2)cc1` [Compound 859], the EC50 under setting [1] is 2.5 to 5 µM.

Turning to `CCCCCCCOc1ccc(-c2cnc(-c3ccc(C[C@H](NC(=O)c4ccc(C(C)(C)C)s4)C(=O)N4CCC[C@H]4C(=O)NCCC(=O)O)cc3)nc2)cc1` [Compound 494], under setting [1], the EC50 was less than 0.8 µM.

`CCCCCCCOc1ccc(-c2cnc(-c3ccc(C[C@H](NC(=O)c4ccc(C(C)(C)C)s4)C(=O)N4CCC4C(=O)O)cc3)nc2)cc1` (stereo partly shown) [Compound 599]: the EC50 under setting [1] is less than 0.8 µM.

As for `CC1CCC(c2ccc(-c3cnc(-c4ccc(C[C@H](NC(=O)c5ccc(C(C)(C)C)s5)C(=O)N5CC(C(=O)O)C5)cc4)nc3)cc2)CC1` (stereo partly shown) [Compound 1187], the EC50 under setting [1] is less than 0.8 µM.

For `CC(C)(C)c1ccc(C(=O)N[C@@H](Cc2ccc(-c3ncc(-c4ccc(-c5ccc(C6CCC6)cc5)cc4F)cn3)cc2)C(=O)N2CC(C(=O)O)C2)s1` [Compound 1210], the EC50 under setting [2] was less than 0.8 µM.

Consider `C[C@@H](NC(=O)[C@H](Cc1ccc(-c2ncc(/C=C/c3cc(C(F)(F)F)cc(C(F)(F)F)c3)cn2)cc1)NC(=O)c1ccc(C(C)(C)C)s1)C(=O)O` [Compound 1261], for which the concentration giving a half-maximal response (EC50) under setting [2] was in the range of 0.8 to 2.5 µM.

For `CCCCCCCOc1ccc(-c2cnc(-c3ccc(CC(NC(=O)c4ccc(C(C)(C)C)s4)C(=O)N4CCC(C(=O)O)C4)cc3)nc2)cc1` (stereo not shown) [Compound 625], the EC50 under setting [1] is less than 0.8 µM.

As for `CC[C@H]1CC[C@H](c2ccc(-c3cnc(-c4ccc(C[C@H](NC(=O)c5ccc(C(C)(C)C)s5)C(=O)N[C@H](C(=O)O)C(C)C)cc4)nc3)cc2)CC1` [Compound 1328], the EC50 under setting [2] lay in the range of 0.8 to 2.5 µM.

As for `CCC(C)(C)c1ccc(C(=O)N[C@@H](Cc2ccc(-c3ncc(-c4ccc([C@H]5CC[C@H](CC)CC5)cc4)cn3)cc2)C(=O)N2CC(C(=O)O)C2)cc1` [Compound 1157], the EC50 under setting [1] was less than 0.8 µM.

On to `CCC[C@H]1CC[C@H](C2CCN(c3cnc(-c4ccc(C[C@H](NC(=O)c5ccc(C(C)(C)C)s5)C(=O)N[C@H](CC(C)C)C(=O)O)cc4)nc3)CC2)CC1` [Compound 1462], for which, under setting [2], the EC50 fell in the range of 0.8 to 2.5 µM.

Turning to `CCCCc1ccc(/C=C/c2cnc(-c3ccc(C[C@H](NC(=O)c4ccc(C(C)(C)C)s4)C(=O)N[C@H](C)C(=O)O)cc3)nc2)cc1` [Compound 1262], the EC50 under setting [2] was 0.8 to 2.5 µM.

With `CCCCCCOc1ccc(-c2cnc(-c3ccc(C[C@H](NC(=O)c4ccc(C(C)(C)C)s4)C(=O)NC(C(=O)O)C(O)c4ccccc4)cc3)nc2)cc1` (stereo partly shown) [Compound 943], the EC50 under setting [1] was 0.8 to 2.5 µM.

Consider `CCC[C@H]1CC[C@H](C2CCN(c3cnc(-c4ccc(C[C@H](NC(=O)c5ccc(C(C)(C)C)s5)C(=O)N5C6CCC5[C@@H](C(=O)O)C6)cc4)nc3)CC2)CC1` (stereo partly shown) [Compound 1448], for which, under setting [2], the EC50 is 5 to 10 µM.

Regarding `CCCc1ccc(C2CCN(c3cnc(-c4ccc(C[C@H](NC(=O)c5ccc(C(C)(C)C)s5)C(=O)N5CC(C(=O)O)C5)cc4)nc3)CC2)cn1` [Compound 1498], under setting [2], the EC50 fell in the range of 0.8 to 2.5 µM.

With `CCCCCCCOc1ccc(-c2cnc(-c3ccc(C[C@H](NC(=O)c4ccc(CCC)cc4)C(=O)N4CC(C(=O)O)C4)cc3)nc2)cc1` [Compound 1112], the EC50 under setting [1] was in the range of 0.8 to 2.5 µM.

As to `CCCCCCCOc1ccc(-c2cnc(-c3ccc(C[C@H](NC(=O)c4ccc(C(C)(C)C)s4)C(=O)NCC4CC4)cc3)nc2)cc1` [Compound 968], the EC50 under setting [1] was in the range of 5 to 10 µM.

Take `CCCCCCCOc1ccc(-c2cnc(-c3ccc(C[C@H](NC(=O)c4ccc(C(C)(C)C)s4)C(=O)NCC(O)CO)cc3)nc2)cc1` (stereo partly shown) [Compound 462]: the EC50 under setting [1] is 5 to 10 µM.

Regarding `CCCCCCCOc1ccc(-c2nnc(-c3ccc(C[C@@H](NC(=O)c4ccc(C(C)(C)C)cc4)C(=O)N4CC(C(=O)O)C4)cc3F)s2)cc1` [Compound 1553], the EC50 under setting [2] fell in the range of 0.8 to 2.5 µM.

On to `CCCCCCCOc1ccc(-c2cnc(-c3ccc(C[C@H](NC(=O)c4ccc(C(C)(C)C)s4)C(=O)N[C@H](CC)C(=O)O)cc3)nc2)cc1` [Compound 402], for which, under setting [1], the half-maximal effective concentration (EC50) is less than 0.8 µM.

Take `C[C@@H](NC(=O)[C@H](Cc1ccc(-c2ncc(-c3ccc(-c4ccc(C#N)cc4)cc3)cn2)cc1)NC(=O)c1ccc(C(C)(C)C)s1)C(=O)O` [Compound 1291]: the EC50 under setting [2] was in the range of 0.8 to 2.5 µM.

With `CC(C)(C)c1ccc(C(=O)N[C@@H](Cc2ccc(-c3ncc(-c4ccc(OCC5CCCC5)cc4)cn3)cc2)C(=O)N2CC(C(=O)O)C2)s1` [Compound 922], the half-maximal effective concentration (EC50) under setting [1] fell in the range of 5 to 10 µM.

Regarding `CCCCCCCOc1ccc(-c2cnc(-c3ccc(C[C@H](NC(=O)c4ccc(OC)cc4)C(=O)N[C@H](C)C(=O)O)cc3)nc2)cc1` [Compound 817], the EC50 under setting [1] lay within 0.8 to 2.5 µM.

As to `CCCCCCCOc1ccc(-c2cnc(-c3ccc(C[C@H](NC(=O)c4ccc(C(C)(C)C)s4)C(=O)NCC4CCNCC4)cc3)nc2)cc1` [Compound 463], the EC50 under setting [1] was 5 to 10 µM.

Take `CCCCCCCOc1ccc(-c2cnc(-c3ccc(C[C@H](NC(=O)c4ccc(CC(C)C)cc4)C(=O)N4CCC[C@H]4C(=O)O)cc3)nc2)cc1` [Compound 1076]: the EC50 under setting [1] fell in the range of 2.5 to 5 µM.

As to `Cc1ccc(-c2ccc(-c3ccc(-c4cnc(-c5ccc(C[C@H](NC(=O)c6ccc(C(C)(C)C)s6)C(=O)N6CC(C(=O)O)C6)cc5)nc4)c(F)c3)cc2)cc1` [Compound 1214], under setting [2], the EC50 lay in the range of 2.5 to 5 µM.
